Measured values as given in paper PMC10590383, “Repurposing conformational changes in ANL superfamily enzymes to rapidly generate biosensors for organic and amino acids” (Nature Communications, 2023).

Key:
[1] = Fluorescence spectra / excitation wavelength scan of […]s; assay type: physicochemical; conditions: Wavelength 300 nm
Experimental: Fig. 3 Dose–response curves and fluorescence spectrums of […]s. a, c, e, g, i, k Dose–response curve of purified […]s with increasing concentrations of ligand in 100 mM Tris-HCl buffer (pH=7.5). […] All data shown are mean ± S.D. (n = 3 biologically independent samples). Source data are provided as a Source data file.
The study conducted dose–response curve, substrate specificity, and fluorescent spectrum analyses in 100-mM Tris buffer (pH = 7.5), while pH stability experiments were performed in 100-mM Tris buffer at three different pH values (6.5, 7.5, and 8.5) at room temperature. […] protein at a concentration of 0.75 μM, various small molecule concentrations, 1 mM ATP, and 2.5 mM MgCl2 were used in the experiments. Fluorescent signals were detected using a Microplate Reader (Synergy H4, Bio Tek) at an excitation/emission wavelength of 460 nm/510 nm or 480 nm/510 nm. The dose-response curve was determined immediately after the addition of the analyte. The total duration of the measurement was 15 min, with readings taken at one-minute intervals. The dose-response curve was plotted using the fluorescence values obtained after achieving stability in the fluorescence signal. The dose-response curves were fitted using the logistic model LOGISTIC5 available in Origin 2021, which could provide a more adequate fit to asymmetric dose-response data[62],[63]. Excitation spectra were scanned from 300 to 540 nm with a step size of 5 nm, and the emission wavelength was set to 560 nm. Emission spectra were scanned from 470 to 700 nm with a step size of 5 nm, and the excitation wavelength was set to 450 nm. The thermal stability of […] was analyzed using the UNcle multifunctional protein stability analysis system. Measurements were performed in 20 mM MOPS buffer with 2 mM DTT at a sample concentration of 1 mg/mL. Absolute fluorescence quantum yields were measured using an absolute photoluminescence quantum yield spectrometer (FS5, Edinburgh).

[2] = Substrate (ligand) specificity of […]s; assay type: biochemical; conditions: for fluorescence response of GECFINDER to each substrate, AVE of 3 repeats: Supplementary Fig. 3 c, substrate specificity
Procedure, shortened: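 Purified biosensor protein (0.75 μM) with ligand, 1 mM ATP and 2.5 mM MgCl2 in 100 mM Tris-HCl, pH 7.5, at room temperature. Fluorescence (Ex 460 or 480/Em 510 nm) read each minute for 15 min. Dose-response fitted by 5-parameter logistic; specificity tested with 20 amino acids at 100 μM as normalized ΔF/F0.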

Row | SMILES | Wavelength scan, AVE of Repeat 1-3 (Fig. 3 d) ([1]; 0.001 μM Phe) | Wavelength scan, AVE of Repeat 1-3 (Fig. 3 d) ([1]; 1 μM Phe) | AVE of Repeat 1-3, sensor signal with ligand (Supplementary Fig. 7 c) ([2]; 0.5 mM ligand, Control AVE 12117.3) | fluorescence response of GECFINDER to each substrate, AVE of 3 repeats [2] | Wavelength scan, AVE of Repeat 1-3 (Fig. 3 j) ([1]; 0.05 μM Ile) | Wavelength scan, AVE of Repeat 1-3 (Fig. 3 j) ([1]; 100 μM Ile) | Wavelength scan, AVE of Repeat 1-3 (Fig. 3 j) ([1]; 10000 μM Ile) | Wavelength scan, AVE of Repeat 1-3 (Fig. 3 l) ([1]; 0.005 μM His) | Wavelength scan, AVE of Repeat 1-3 (Fig. 3 l) ([1]; 10 μM His) | Wavelength scan, AVE of Repeat 1-3 (Fig. 3 l) ([1]; 1000 μM His)
1 | N[C@@H](Cc1ccccc1)C(=O)O [Phe] | 174.667 | 212 | 23386.3 | 0.3443 |  |  |  |  |  | 
2 | CC[C@H](C)[C@H](N)C(=O)O [Ile] |  |  |  | 0.009799 | 3399.67 | 3371.67 | 3289.33 |  |  | 
3 | N[C@@H](Cc1cnc[nH]1)C(=O)O [His] |  |  |  | 0.0452 |  |  |  | 201.667 | 165.667 | 210
